Laboratory results reported in US9399646B2 (Genentech, Inc., priority 2010, dated 2016).

Tests used:
[1] = molecular target: T1, ER-α in MCF-7 cells (Homo sapiens, UniProt P03372); test: Breast cancer cell ER-α in cell western assay (SP1); format: cell-based; design: endogenous in cells; host or cells: MCF-7; conditions: 4 or 24 hr post compound addition; for Emax: MCF7, SP1 antibody, read-out: ER-α In Cell Western Assay (SP1) Max Response; for DC50: SP1 antibody, read-out: ER-α In Cell Western Assay (SP1) IC50
T1 sequence (P03372 1-595): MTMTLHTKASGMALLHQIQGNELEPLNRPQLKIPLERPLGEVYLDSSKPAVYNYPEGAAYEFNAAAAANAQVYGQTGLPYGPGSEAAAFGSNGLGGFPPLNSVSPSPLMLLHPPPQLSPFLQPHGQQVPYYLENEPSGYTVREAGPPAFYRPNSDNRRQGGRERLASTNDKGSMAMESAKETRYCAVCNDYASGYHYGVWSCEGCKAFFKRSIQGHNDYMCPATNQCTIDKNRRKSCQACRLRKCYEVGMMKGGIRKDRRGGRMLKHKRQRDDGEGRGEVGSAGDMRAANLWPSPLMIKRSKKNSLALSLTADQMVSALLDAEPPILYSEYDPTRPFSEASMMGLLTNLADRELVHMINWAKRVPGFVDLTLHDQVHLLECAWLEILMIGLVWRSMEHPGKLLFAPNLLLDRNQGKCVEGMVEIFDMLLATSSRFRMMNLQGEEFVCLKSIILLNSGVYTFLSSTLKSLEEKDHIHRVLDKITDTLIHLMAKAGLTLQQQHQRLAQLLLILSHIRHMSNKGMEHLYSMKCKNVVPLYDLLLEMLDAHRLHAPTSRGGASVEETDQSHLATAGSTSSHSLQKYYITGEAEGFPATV
Experimental: MCF-7 cells were adjusted to a concentration of 200,000 cells per mL in RPMI containing 10% charcoal-stripped FBS and 20 mM HEPES. 16 microliters of the cell suspension (3200 cells) was added to each well of a poly-D-lysine 384 well plate, and the cells were incubated overnight to allow the cells to adhere. The following day an eleven point, serial semilog dilution of each compound was added to the cells in 16 μL at a final concentration ranging from 0.3-0.000003 μM. At 4 or 24 hr post compound addition, the cells were fixed (10% formalin in PBS) for 20 minutes. Cells were permeablized in PBS 0.1% Triton and blocked with LICOR blocking buffer (50 μl/well, 90°). The wells were then incubated overnight at 4° C. with SP1 rabbit monoclonal Ab (Thermo Scientific) diluted 1:1000 in LICOR blocking buffer/0.1% Tween-20. Wells which were treated with blocking buffer with Tween but no antibody were used as a background control. Wells were washed with 0.1% Tween-20/PBS and then incubated in goat anti-rabbit IRDye™ 800CW (LICOR Inc.; 1:1000) and DRAQ5 DNA dye (1:2000 for 2 mM stock) diluted in LICOR blocking buffer containing 0.1% Tween-20 and 0.01% SDS for 60 minutes. Cells were washed (50 μl/well, 5′ each) in 0.1% Tween-20/PBS. Plates were scanned on a LICOR Odyssey infrared imaging system. Integrated intensities in the 800 nm channel and 700 nm channel were measured to determine levels of ER and DNA respectively. Percent ER levels were determined as follows: (Integrated intensity 800 nm sample/integrated intensity 700 nm sample)/(Integrated intensity 800 nm untreated cells/integrated intensity 700 nm untreated cells)×100=% ER levels.

[2] = tested on: MCF-7 cells; test: Breast cancer cell viability assay (CellTiter-Glo, 5 days); format: cell-based; conditions: 5 days' compound exposure; for IC50: Homo sapiens, MCF7, 120 h
Experimental: MCF-7 cells were adjusted to a concentration of 20,000 cells per mL in RPMI containing 10% FBS and 20 mM HEPES. 16 microliters of the cell suspension (320 cells) was added to each well of a 384 well plate, and the cells were incubated overnight to allow the cells to adhere. The following day an eleven point, serial semilog dilution of each compound was added to the cells in 16 μL at a final concentration ranging from 0.3-0.000003 μM. After 5 days' compound exposure, 16 μL of CellTiter-GLo (Promega, Madison Wis.) was added to the cells the relative luminescence units (RLUs) of each well was determined CellTiter-Glo added to 32 μL of medium without cells was used to obtain a background value. The Percent viability of each sample was determined as follows: (RLU sample-RLU background/RLU untreated cells-RLU background)×100=% viability.

| SMILES | Emax [1] [%] | DC50 [1] [nM] | IC50 [2] [nM] | MCF7 Viability Assay Max Response [2] |
| --- | --- | --- | --- | --- |
| CC/C(=C(/c1ccc(/C=C/C(=O)O)cc1)c1ccc2nccnc2c1)c1ccccc1 [Compound 124, (E)-3-(4-((E)-2-Phenyl-1-(quinoxalin-6-yl)but-1-en-1-yl)phenyl)acrylic acid] | ≥ 40 | > 100 | > 100 | + (+ = a single % value < 40%) |
| CC/C(=C(/c1ccc(/C=C/C(=O)O)cc1)c1ccn2nccc2c1)c1ccccc1 [Compound 125, (E)-3-(4-((E)-2-Phenyl-1-(pyrazolo[1,5-a]pyridin-5-yl)but-1-en-1-yl)phenyl)acrylic acid] | ≥ 40 | > 100 | > 100 | ++ (++ = a single % value ≧ 40%) |
| CC/C(=C(/c1ccc(/C=C/C(=O)O)cc1)c1ccc2nncn2c1)c1ccccc1 [Compound 127, (E)-3-(4-((E)-1-([1,2,4]Triazolo[4,3-a]pyridin-6-yl)-2-phenylbut-1-en-1-yl)phenyl)acrylic acid] | < 40 | > 100 | > 100 | + (+ = a single % value < 40%) |
| CC/C(=C(/c1ccc(/C=C/C(=O)O)cc1)c1ccc2c(c1)OCO2)c1ccccc1 [Compound 128, (E)-3-(4-((E)-1-(Benzo[d][1,3]dioxol-5-yl)-2-phenylbut-1-en-1-yl)phenyl)acrylic acid] | ≥ 40 | > 100 | > 100 | ++ (++ = a single % value ≧ 40%) |
| CC/C(=C(/c1ccc(/C=C/C(=O)O)cc1)c1ccc2ncsc2c1)c1ccccc1 [Compound 130, (E)-3-(4-((E)-1-(Benzo[d]thiazol-6-yl)-2-phenylbut-1-en-1-yl)phenyl)acrylic acid] | ≥ 40 | > 100 | > 100 | ++ (++ = a single % value ≧ 40%) |
| CC/C(=C(/c1ccc(/C=C/C(=O)O)cc1)c1ccc2cncn2c1)c1ccccc1 [Compound 133, (E)-3-(4-((E)-1-(Imidazo[1,5-a]pyridin-6-yl)-2-phenylbut-1-en-1-yl)phenyl)acrylic acid] | ≥ 40 | > 100 | > 100 | ++ (++ = a single % value ≧ 40%) |
| CC/C(=C(/c1ccc(/C=C/C(=O)O)cc1)c1ccn2cnnc2c1)c1ccccc1 [Compound 134, (E)-3-(4-((E)-1-([1,2,4]Triazolo[4,3-a]pyridin-7-yl)-2-phenylbut-1-en-1-yl)phenyl)acrylic acid] | < 40 | > 100 | > 100 | + (+ = a single % value < 40%) |
| CC/C(=C(/c1ccc(/C=C/C(=O)O)cc1)c1ccn2cncc2c1)c1ccccc1 [Compound 135, (E)-3-(4-((E)-1-(Imidazo[1,5-a]pyridin-7-yl)-2-phenylbut-1-en-1-yl)phenyl)acrylic acid] | ≥ 40 | > 100 | ≤ 100 | + (+ = a single % value < 40%) |
| CC/C(=C(/c1ccc(/C=C/C(=O)O)cc1)c1ccn2ncnc2c1)c1ccccc1 [Compound 136, (E)-3-(4-((E)-1-([1,2,4]Triazolo[1,5-a]pyridin-7-yl)-2-phenylbut-1-en-1-yl)phenyl)acrylic acid] | ≥ 40 | > 100 | > 100 | + (+ = a single % value < 40%) |

The next lines start with results.

| Emax [1] [%] | DC50 [1] [nM] | IC50 [2] [nM] | SMILES | MCF7 Viability Assay Max Response [2] |
| --- | --- | --- | --- | --- |
| ≥ 40 | > 100 | > 100 | CC/C(=C(/c1ccc(/C=C/C(=O)O)cc1)c1ccc2c(c1)C(=O)NC2)c1ccccc1 [Compound 104, (E)-3-(4-((E)-1-(3-Oxoisoindolin-5-yl)-2-phenylbut-1-en-1-yl)phenyl)acrylic acid] | ++ (++ = a single % value ≧ 40%) |
| ≥ 40 | > 100 | > 100 | CC/C(=C(/c1ccc(/C=C/C(=O)O)cc1)c1ccc2[nH]c(=O)ccc2c1)c1ccccc1 [Compound 105, (E)-3-(4-((E)-1-(2-Oxo-1,2-dihydroquinolin-6-yl)-2-phenylbut-1-en-1-yl)phenyl)acrylic acid] | ++ (++ = a single % value ≧ 40%) |
| ≥ 40 | > 100 | > 100 | CC/C(=C(/c1ccc(/C=C/C(=O)O)cc1)c1ccc2c(c1)OCC(=O)N2)c1ccccc1 [Compound 107, (E)-3-(4-((E)-1-(3-Oxo-3,4-dihydro-2H-benzo[b][1,4]oxazin-7-yl)-2-phenylbut-1-en-1-yl)phenyl)acrylic acid] | ++ (++ = a single % value ≧ 40%) |
| ≥ 40 | ≤ 100 | ≤ 100 | CC/C(=C(/c1ccc(/C=C/C(=O)O)cc1)c1ccc2c(c1)CNC2=O)c1ccccc1 [Compound 110, (E)-3-(4-((E)-1-(1-Oxoisoindolin-5-yl)-2-phenylbut-1-en-1-yl)phenyl)acrylic acid] | ++ (++ = a single % value ≧ 40%) |
| ≥ 40 | > 100 | > 100 | CC/C(=C(/c1ccc(/C=C/C(=O)O)cc1)c1ccc2ncccc2c1)c1ccc(F)cc1 [Compound 118, (E)-3-(4-((E)-2-(4-Fluorophenyl)-1-(quinolin-6-yl)but-1-en-1-yl)phenyl)acrylic acid] | ++ (++ = a single % value ≧ 40%) |
| ≥ 40 | ≤ 100 | ≤ 100 | CC/C(=C(/c1ccc(/C=C/C(=O)O)cc1)c1ccc2[nH]ncc2n1)c1ccccc1 [Compound 120, (E)-3-(4-((E)-2-Phenyl-1-(1H-pyrazolo[4,3-b]pyridin-5-yl)but-1-en-1-yl)phenyl)acrylic acid] | ++ (++ = a single % value ≧ 40%) |
| ≥ 40 | > 100 | > 100 | CC/C(=C(/c1ccc(/C=C/C(=O)O)cc1)c1ccc2[nH]c(=O)[nH]c2c1)c1ccccc1 [Compound 122, (E)-3-(4-((E)-1-(2-Oxo-2,3-dihydro-1H-benzo[d]imidazol-5-yl)-2-phenylbut-1-en-1-yl)phenyl)acrylic acid] | ++ (++ = a single % value ≧ 40%) |
| ≥ 40 | ≤ 100 | > 100 | CC/C(=C(/c1ccc(/C=C/C(=O)O)cc1)c1ccc2ccccc2c1)c1ccccc1 [Compound 123, (E)-3-(4-((E)-1-(Naphthalen-2-yl)-2-phenylbut-1-en-1-yl)phenyl)acrylic acid] | ++ (++ = a single % value ≧ 40%) |
| ≥ 40 | ≤ 100 | > 100 | CC/C(=C(/c1ccc(/C=C/C(=O)O)cc1)c1ccc2nccn2c1)c1ccccc1 [Compound 126, (E)-3-(4-((E)-1-(Imidazo[1,2-a]pyridin-6-yl)-2-phenylbut-1-en-1-yl)phenyl)acrylic acid] | ++ (++ = a single % value ≧ 40%) |
| ≥ 40 | ≤ 100 | > 100 | CC/C(=C(/c1ccc(/C=C/C(=O)O)cc1)c1ccc2nccn2c1)c1ccccc1C [Compound 129, (E)-3-(4-((E)-1-(Imidazo[1,2-a]pyridin-6-yl)-2-(o-tolyl)but-1-en-1-yl)phenyl)acrylic acid] | ++ (++ = a single % value ≧ 40%) |
